Read-outs that look alike come from different tables or passages of the source.
Key:
[1] = molecular target: T1, p53-Y220C (Homo sapiens, UniProt P04637, M133L/N239Y/N268D/V203A/Y220C); assay: Thermal stabilization (ΔTm) by differential scanning fluorimetry (DSF); format: binding; conditions: 10× SYPRO Orange; for ΔTm at 200 µM: 8 μM protein; for ΔTm (°C) [L] = 200 μM: Table 1, 8 μM protein
T1 construct: Stabilized p53-Y220C DBD (residues 94−312) was expressed and purified as previously described; 6xHis (N, cleaved yes); lipoyl domain (N, cleaved yes); TEV protease cleavage site (N, cleaved yes); made in house; host or cells: E. coli Rosetta2 plac I
Method: Differential Scanning Fluorimetry (DSF)
Protein thermal stabilization was determined using SYPRO orange (Life Technologies) as a dye that increases in fluorescence quantitatively upon binding to hydrophobic protein surfaces exposed upon thermal denaturation. Real-time melt analysis was recorded on a Bio-rad CFX Connect Real-time qPCR system. DSF measurements were performed using 8 μM protein and 10x SYPRO orange in assay buffer (25 mM KPi, 150 mM NaCl, 1 mM TCEP, pH 7.2) at a final DMSO concentration of 5% (v/v). ΔT m values were calculated as ΔT m = T m (protein + compound) − T m (protein). ΔT m values are reported as an average of three independent measurements. […]

[2] = molecular target: T1, p53-Y220C; assay: Binding affinity by isothermal titration calorimetry (ITC); conditions: for LE (kcal/mol/NHA): ligand efficiency; for fold reduction in binding affinity compared with 4: versus unsubstituted pyrrole reference 4
Method: Isothermal Titration Calorimetry (ITC)
ITC experiments were conducted using a MicroCal iTC200 calorimeter. For forward titrations, the cell unit contained 25-50 μM protein in freshly dialyzed assay buffer (25 mM KPi, 150 mM NaCl, 1 mM TCEP, pH 7.2) with a final DMSO content of 5% (v/v), and the syringe contained 0.5-5 mM compound […]
the same buffer. Injection steps used were 2 µL (initial injection: 0.5 µL) at a rate of 2 µL/s with 120 s or 240 s spacing, and all experiments were performed at 25-30 °C. Data were analyzed using MicroCal PEAQ-ITC analysis software. […]

[3] = system: p53-Y220C cancer cell lines HUH-7, BXPC-3, NUGC-3; conditions: cited from earlier work
[4] = molecular target: T1, p53-Y220C; conditions: cited from earlier work
[5] = system: NUGC-3 (p53-Y220C); design: method as in PMID 29702446; conditions: at 10 μM; cited from earlier work
[6] = molecular target: T1, p53-Y220C; conditions: cited from earlier work; for stabilization of p53-Y220C (DSF): in vitro
[7] = system: p53 target genes PUMA, 9p21, BTG2, FAS, TNF, and TNFRSF10B; design: method as in PMID 29702446; conditions: qPCR; cited from earlier work
[8] = molecular target: T1, p53-Y220C; assay: Binding affinity by isothermal titration calorimetry (ITC); conditions: Table 2; ITC reverse titrations, 4–15 μM ligand, 100–147 μM protein
[9] = system: p53; design: method as in PMID 31633398; conditions: in vitro; cited from earlier work

ΔTm at 200 µM ([1]; Table 1, [L] = 200 μM)	Kd ([2]; Table 1, ITC, [prot] = 50 μM)	LE (kcal/mol/NHA) ([2]; Table 1)	melting point	SMILES	other results
1.5 °C	160 µM	0.29 kcal/mol/NHA		Cc1ccn(-c2c(I)cc(C(=O)O)c(O)c2I)c1 [compound 44]	
1.8 °C	22 µM	0.37 kcal/mol/NHA	199 to 200 °C (dec.)	O=C(O)c1cc(I)c(-n2cccc2)c(I)c1O [compound 4]	
0.5 °C	100 µM	0.26 kcal/mol/NHA		O=C(O)c1cc(I)c(-n2ccc(C(F)(F)F)c2)c(I)c1O [compound 23]	fold reduction in binding affinity compared with 4 [2]: approximately 5 fold
1.9 °C	15 µM	0.37 kcal/mol/NHA	270 to 271 °C (dec.)	O=C(O)c1cc(I)c(-n2ccc(F)c2)c(I)c1O [compound 21]	
1.5 °C	38 µM	0.33 kcal/mol/NHA		O=C(O)c1cc(I)c(-n2ccc(Cl)c2)c(I)c1O [compound 20]	
			235 to 236 °C (dec.)	CC(=O)c1ccn(-c2c(I)cc(C(=O)O)c(O)c2I)c1 [compound 46]	
0.7 °C			241 °C (dec.)	O=C(O)c1cc(I)c(-n2cccn2)c(I)c1O [compound 17]	
1 °C			238 °C (dec.)	O=C(O)c1cc(I)c(-n2ccnc2)c(I)c1O [compound 18]	
0.5 °C				CCc1ccn(-c2c(I)cc(C(=O)O)c(O)c2I)c1 [compound 47]	ΔTm (°C) [L] = 200 μM [1]: induced virtually no stabilization

More lines, now with the values behind:

SMILES	ΔTm at 200 µM ([1]; Table 1, [L] = 200 μM)	Kd ([2]; Table 1, ITC, [prot] = 50 μM)	LE (kcal/mol/NHA) ([2]; Table 1)	melting point	other results
Cc1c(I)cc(C(=O)O)c(O)c1I [compound 74]	0.3 °C				
O=C(O)c1cc(I)c(OCC(F)(F)F)c(I)c1O [compound 24]	0.3 °C				
O=C(O)c1cc(I)c(-n2cc(F)c(F)c2)c(I)c1O [compound 22]	1.9 °C	25 µM	0.33 kcal/mol/NHA	217 to 218 °C (dec.)	
CCCc1c(I)cc(C(=O)O)c(O)c1I [compound 76]	0.9 °C	40 µM	0.40 kcal/mol/NHA		
CCNC(=O)c1c(O)c(I)c(-n2cccc2)c2sc(N(CC)CC)nc12 [compound 3]					selective cell viability reduction ([3]; HUH-7, BXPC-3, NUGC-3 versus NUGC-4, SW1088, WI38, HUH-7 p53-Y220C KO): induces selective cell viability reduction; Kd ([4]; literature value, ITC): 4 µM; NUGC-3 viability [5]: < 10%; stabilization of p53-Y220C (DSF) [6]: stabilize p53-Y220C in vitro in a concentration-dependent manner; transcription of p53 target genes [7]: enhanced and selective transcription of p53 target genes
CCc1c(I)cc(C(=O)O)c(O)c1I [compound 75]	1.5 °C	26 µM	0.45 kcal/mol/NHA	188 to 189 °C (dec.)	
CN(C)Cc1ccc2c(c1)c1ccccc1n2CC(F)(F)F [compound 6]					Kd ([4]; supplementary CSV, previously reported compounds, no reference printed in the file): 37 µM
CCN(CC)c1nc2c(C(=O)O)c(O)c(I)c(-n3ccc(Cl)c3)c2s1 [compound 89]					Kd [8]: 1.9 µM; ΔTm at 200 µM ([1]; Table 2, [L] = 200 μM): 2 °C; LE (kcal/mol/NHA) ([2]; Table 2): 0.31 kcal/mol/NHA; fold weaker binding affinity compared with MB710 (2) ([2]; versus parent 2): ca. 2 fold
Cc1cccn1-c1c(I)cc(C(=O)O)c(O)c1I [compound 43]	1.5 °C	200 µM	0.28 kcal/mol/NHA		
CCN(CC)c1nc2c(C(=O)O)c(O)c(I)c(-n3cccc3)c2s1 [compound 2, reference compound]					Kd [8]: 1.2 µM; ΔTm at 200 µM ([1]; Table 2, [L] = 200 μM): 2.3 °C; LE (kcal/mol/NHA) ([2]; Table 2): 0.34 kcal/mol/NHA; stabilization of p53-Y220C (DSF) [6]: stabilize p53-Y220C in vitro in a concentration-dependent manner
CCCOc1c(I)cc(C(=O)O)c(O)c1I [compound 64]	1.1 °C	100 µM	0.34 kcal/mol/NHA		
CCn1c2ccc(CNC)cc2c2ccc(-c3cc(C)cs3)cc21 [compound 1]					selective cell viability reduction ([3]; HUH-7 and NUGC-3 (p53-Y220C) versus HUH7-F1 (p53-Y220C KO) and NUGC-4 (p53-WT), narrow concentration range): induces selective cell viability reduction; Kd ([4]; binding to the Y220C pocket): 2 µM; thermal shift (ΔTm) to the protein melting temperature ([6]; 250 μM [ligand]): over 3 °C; p53 aggregation [9]: reduces p53 aggregation in vitro
CCNc1ccc(C(=O)O)c(O)c1I [compound 67]	1.5 °C			147 °C (dec.)	
COc1c(I)cc(C(=O)O)c(O)c1I [compound 62]	1.5 °C	120 µM	0.38 kcal/mol/NHA	197 to 198 °C (dec.)	
Cc1ccc(C)n1-c1c(I)cc(C(=O)O)c(O)c1I [compound 45]	1.1 °C	77 µM	0.30 kcal/mol/NHA	215 °C (dec.)	fold reduction in binding affinity compared with 4 [2]: 3 fold
CCN(CC)c1nc2c(C(=O)O)c(O)c(I)c(-n3cc(F)c(F)c3)c2s1 [compound 88]				216 to 217 °C	Kd [8]: 0.39 µM; ΔTm at 200 µM ([1]; Table 2, [L] = 200 μM): 1.8 °C; LE (kcal/mol/NHA) ([2]; Table 2): 0.34 kcal/mol/NHA
O=C(O)c1cc(I)c(N2CCCC2)c(I)c1O [compound 70]	0.3 °C			146 °C (dec.)	ΔTm (°C) [L] = 200 μM [1]: did not exhibit measurable binding nor thermal stabilization; Kd (μM) ([2]; Table 1, ITC, [prot] = 50 μM): did not exhibit measurable binding nor thermal stabilization
CCN(CC)c1nc2c(C(=O)O)c(O)c(I)c(-n3ccc(F)c3)c2s1 [compound 87]					Kd [8]: 0.32 µM; ΔTm at 200 µM ([1]; Table 2, [L] = 200 μM): 2.7 °C; LE (kcal/mol/NHA) ([2]; Table 2): 0.35 kcal/mol/NHA; fold improvement in affinity compared with parent 2 ([2]; versus parent MB710 (2)): approximately 4 fold
O=C(O)c1cc(I)c(-n2ccc3ccccc32)c(I)c1O [compound 19]	-0.3 °C			183 to 184 °C (dec.)	ΔTm (°C) [L] = 200 μM [1]: induced virtually no stabilization
O=C(O)c1cc(I)c(OCCC(F)(F)F)c(I)c1O [compound 65]	0.5 °C			182 to 183 °C (dec.)	
CCOc1c(I)cc(C(=O)O)c(O)c1I [compound 63]	1.5 °C	86 µM	0.37 kcal/mol/NHA	194 to 195 °C (dec.)	
